Results as given in patent US20090012014A1, “Compound, Composition and a Process Thereof” (INDUS BIOTECH PVT. LTD, priority 2007, published 2009).
Several values for one entry are separate records, joined by “and”; a condition that tells them apart may be missing. Identical values can stand only once. Like-named read-outs stand apart in the source and are kept apart here. Marks after values point to notes of the source that are not given here.

Tests used:
[1] = system: paw edema in Carrageenan model; test: Acute study: Carrageenan induced paw edema; assay type: in vivo, Swiss Wistar rats; conditions: paw volume at 3 hrs
Procedure: These tests are for the inhibition of inflammation caused by prostaglandins in short period of time. This can be tested in animal (Swiss Wistar rats) as per well known protocols which are treated with Carrageenan. This model tests out anti-inflammatory activity caused by prostaglandin inhibition. Celecoxib is given as a positive control to do a comparison and evaluate the efficacy of anti-inflammatory purified extract as described above in Prostaglandin inhibition in 3 hrs.
Paw Volume measured is compared with Control group and standard drug, celecoxib. Paw volume initial to the paw volume at 1 h, 2 h, 3 h is measured and peak inhibition, which is at 3 hrs is noted down. In this model efficacy as well as dosage of drug is arrived by considering peak % inhibition. […] This is also not statistically significant.

[2] = system: Cotton pellet Granuloma; test: Sub acute study: cotton pellet granuloma; assay type: in vivo, Swiss Wistar rats; conditions: dried pellet weight after 7 days
Procedure: This evaluates inflammation over a period of 7 days. This is done by classical animal model (in Swiss Wistar tats) of cotton pallet granuloma. Celecoxib is a positive control for comparison of the efficacy of Test Compound.
100 mg per kg is the optimal dose. A comparison is made with Celecoxib.

[3] = system: FCA induced arthritis; test: Chronic study: FCA (Freunds Complete Adjuvant) induced arthritis; assay type: in vivo, Swiss Wistar rats; conditions: for Anti-inflammatory activity (% Inhibition) in FCA induced arthritis Day 18: treatment from 13th day
Procedure: (§1) This activity mimics the onset of autoimmune damage to joints and tests the efficiency of drug against this damage. Leflunamide is taken as positive control. Here Swiss Wistar rats are treated with Freunds Complete Adjuvant (CFA) to induce chronic inflammation symptoms similar to rheumatis diseases. The symptoms appear by 13th day. The drug treatment is started from 13th day to 23rd day for 10 days.
In addition, a disseminated arthritic reaction (secondary response) developed from […] alter FCA injection. The swelling was observed both in the injected paw and in the non-injected contra lateral paw. The reduction of the planter volume was statistically significant for both hind legs. The test compound gave a very impressive reduction of 52% at 100 mg per kg dose which is statistically significant. This compared very well with DMARD drug Leflunomide. However, Leflunomide is highly nephrotoxic and cannot be administered for a long time.

[4] = system: C-reactive protein; test: C-reactive protein test (CRP test kit) in FCA arthritis model; assay type: in vivo, Swiss Wistar rats
Procedure: This activity mimics the onset of autoimmune damage to joints and tests the efficiency of drug against this damage. Leflunamide is taken as positive control. Here Swiss Wistar rats are treated with Freunds Complete Adjuvant (CFA) to induce chronic inflammation symptoms similar to rheumatis diseases. The symptoms appear by 13th day. The drug treatment is started from 13th day to 23rd day for 10 days. […] In this method the CRP test kit ([…], Dreadnought Trading Estate Bridgeport Dorset DT6 5BU UK) was used for the measurement of CRP. The results are expressed either […] or -ve depending on the formation of precipitate Normal range of CRP: up to 6 mg/L. Below this level is considered to be negative.

[5] = system: TNF-α; test: TNF-α level in serum of FCA induced arthritic rat; assay type: in vivo
Procedure: as §1
Effect of Test compound and standard drug Celecoxib on TNF-α level in FCA induced arthritis rat. The serum from the FCA induced arthritic rat was examined for Tumor necrosis factor alpha. The experimental protocol was same as example no.

[6] = system: gastric mucosa; test: Gastric ulcerogenic effects after repeated oral administration; assay type: in vivo, male Swiss Wistar rats
From the text: Gastric ulcerogenic effects of Test compound and celecoxib after repeated oral administration for 7 consecutive days to the male Swiss Wistar rats.
In the control group, structure of the gastric mucosa appears normal.

[7] = system: patients with rheumatoid arthritis
[8] = out of the total 70 patients recruited

## CC(COC1OC(CO)C(O)C(O)C1O)C(C)CC1(O)CC2CC3C4CC=C5CC(OC6OC(CO)C(O)C(O)C6OC6OC(C)C(O)C(O)C6O)CCC5(C)C4CCC3(C)C2C1C (centres unmarked) [Test compound]
[1]; Dose 50 mg/kg
  Anti-inflammatory activity (% Inhibition) in Carrageenan model In 3 Hrs.: 26.49* %
[1]; Dose 100 mg/kg
  Anti-inflammatory activity (% Inhibition) in Carrageenan model In 3 Hrs.: 32.54* %
[1]; Dose 100 mg/kg, listed as test compound
  Anti-inflammatory activity (% Inhibition) in Carrageenan model In 3 Hrs.: 32.44%
[1]; Dose 200 mg/kg
  Anti-inflammatory activity (% Inhibition) in Carrageenan model In 3 Hrs.: 34.44* %
[2]; Dose 50 mg/kg
  Anti-inflammatory activity (% Inhibition) in Cotton pellet Granuloma: 24.2* %
[2]; Dose 100 mg/kg, 100 mg/kg
  Anti-inflammatory activity (% Inhibition) in Cotton pellet Granuloma: 33.2* %
[2]; Dose 100 mg/kg, listed as test compound, 100 mg/kg
  Anti-inflammatory activity (% Inhibition) in Cotton pellet Granuloma: 32.3%
[2]; Dose 200 mg/kg
  Anti-inflammatory activity (% Inhibition) in Cotton pellet Granuloma: 39.4** %
[3]; Dose 50 mg/kg
  Anti-inflammatory activity (% Inhibition) in FCA induced arthritis Day 18: 18.04%
[3]; Dose 50 mg/kg, treatment 13th to 23rd day
  Anti-inflammatory activity (% Inhibition) in FCA induced arthritis Day 23: 29.07* %
[3]; Dose 100 mg/kg
  Anti-inflammatory activity (% Inhibition) in FCA induced arthritis Day 18: 32.38%
[3]; Dose 100 mg/kg, treatment 13th to 23rd day (text values print no day), 100 mg/kg
  Anti-inflammatory activity (% Inhibition) in FCA induced arthritis Day 23: 52.81* %
[3]; Dose 100 mg/kg, treatment 13th to 23rd day (text values print no day), listed as test compound, 100 mg/kg
  Anti-inflammatory activity (% Inhibition) in FCA induced arthritis Day 23: 52% and 56%
[3]; Dose 200 mg/kg
  Anti-inflammatory activity (% Inhibition) in FCA induced arthritis Day 18: 25.41%
[3]; Dose 200 mg/kg, treatment 13th to 23rd day
  Anti-inflammatory activity (% Inhibition) in FCA induced arthritis Day 23: 56.55* %
[4]; After 10 Day Treatment, CRP test kit, precipitate
  C-reactive protein After 10 Day Treatment: Negative (Normal range of CRP: up to 6 mg/L. Below this level is considered to be negative)
[4]; Before Treatment, CRP test kit, precipitate
  C-reactive protein Before Treatment: Negative (Normal range of CRP: up to 6 mg/L. Below this level is considered to be negative)
[4]; after treatment
  C-reactive protein in FCA chronic arthritis model (in words): decrease in C-reactive protein
[5]; Day 0
  Concentration of TNF-α in pg/mL Day 0: 36.8 pg/mL
[5]; Day 13
  Concentration of TNF-α in pg/mL Day 13: 45.3 pg/mL
[5]; Day 21
  Concentration of TNF-α in pg/mL Day 21: 36.1 pg/mL
[5]; Day 21, listed as experimental drug
  Concentration of TNF-α in pg/mL Day 21: inhibits TNF-α
[6]; Dose 200 mg/kg p.o., 7 consecutive days
  Mean score of Lesion intensity: Nil
[6]; rat, in vivo, po, 200 mg/kg
  Average of no. of ulcer per animal: Nil
  No. of animals with ulcer (%): Nil
  Ulcer Index (UI): Nil
[7]; 12 months
  HAQ (Health Assessment Questionnaire) 12 mths (mean): 4.4
  JCSW (Joint count swelling) 12 mths (mean): 1.6
[7]; 12 months, 16 mg per kg body weight
  JCPT (Joint Count Pain/Tenders) 12 mths (mean): 5.5
[7]; 12 months, FIG. 2, listed as test compound
  CRP (C Reactive Protein), nephlometry, over time: reduction
[7]; 12 months, FIG. 3, listed as test compound
  RF (Rheumatoid factor) Titre, nephlometry, over time: reduction
[7]; 12 months, Westergren
  ESR 12 mths (mean): 66
[7]; 12 months, scale 0-10 cms
  painVAS (pain visual analogue scale) 12 mths (mean): 3.6
  patGlobal (patient global assessment) 12 mths (mean): 3.4
  phyGlobal (physician global assessment) 12 mths (mean): 2.6
[7]; Baseline
  HAQ (Health Assessment Questionnaire) Baseline (mean): 8.8
  HDL BASELINE: 44.6
  LDL BASELINE: 117.08
[7]; Baseline ratio
  HDL/LDL BASELINE: 0.41
[7]; Baseline, 66 joints
  JCSW (Joint count swelling) Baseline (mean): 9.5
[7]; Baseline, 68 joints, 16 mg per kg body weight
  JCPT (Joint Count Pain/Tenders) Baseline (mean): 24.3
[7]; Baseline, Westergren
  ESR Baseline (mean): 61.4
[7]; Baseline, scale 0-10 cms
  painVAS (pain visual analogue scale) Baseline (mean): 6.6
  patGlobal (patient global assessment) Baseline (mean): 6.4
  phyGlobal (physician global assessment) Baseline (mean): 5.7
[7]; Patient No. 019
  Patients in Clinical Remission: Duration (Months): 8 Months
[7]; Patient No. 035*, ACR remission, ESR <30 mm
  Patients in Clinical Remission: Duration (Months): 3 Months
[7]; Patient No. 037*, ACR remission, ESR <30 mm
  Patients in Clinical Remission: Duration (Months): 3 Months
[7]; Patient No. 038*, ACR remission, ESR <30 mm
  Patients in Clinical Remission: Duration (Months): 3 Months
[7]; Patient No. 049
  Patients in Clinical Remission: Duration (Months): 5 Months
[7]; Patient No. 051
  Patients in Clinical Remission: Duration (Months): 2 Months
[7]; Patient No. 054*, ACR remission, ESR <30 mm
  Patients in Clinical Remission: Duration (Months): 3 Months
[7]; Patient No. 057
  Patients in Clinical Remission: Duration (Months): 6 Months
[7]; Patient No. 059
  Patients in Clinical Remission: Duration (Months): 5 Months
[7]; Patient No. 112*, ACR remission, ESR <30 mm
  Patients in Clinical Remission: Duration (Months): 7 Months
[7]; at 12 months, printed 95% CI—0.35, −2.90, listed as test compound
  Serum albumin: significant improvements
[7]; at 12 months, printed (95%) CI 1.2, 35, listed as test compound
  Blood Urea Nitrogen: significant improvements
[7]; baseline to 12 months
  ESR Mean change: −3.05
[7]; human, in vivo
  Adverse alterations in routine haematology, biochemistry (renal and hepatic) and metabolic parameters: no significant adverse alterations
  HDL/LDL ratio of rheumatic patients after treatment: 0.45
  Laboratory values for SGOT, SGTP, GGT, Serum bilirubin and Serum creatinine: No significant changes
  Side-effects recorded: Minor side-effects
[7]; mean change from baseline
  HDL MEAN CHANGE: −1.57
  HDL/LDL MEAN CHANGE: −6.1
  LDL MEAN CHANGE: 12.7
[7]; one year study
  ACR 50 improvement response (patients responding): 40%
  Patients who satisfied the ACR criteria for remission that also includes the ESR response: 5 patients
[7]; one year study, 20% improvement in ACR factors
  ACR 20 improvement response (patients responding): 80%
[7]; one year study, P<0.05, listed as test compound
  All clinical efficacy measures (ACR core set), overall result in words: significant disease modifying anti-arthritic action
[7]; [8]
  Patients completely asymptomatic as per ACR core set clinical measures (percent): 11.9%
  Patients completely asymptomatic as per ACR core set clinical measures / remission of disease: 10 patients
